Measured values reported in patent US11931389B2, “Tablet of sporoderm-removed ganoderma lucidum spore and preparation method thereof” (Zhejiang Shouxiangu Pharmaceutical Company, Ltd., priority 2017, dated 2024).
Counter-ions that a name gives are not always drawn.

Tests used:
Assay type in all cases: in vivo
[1] = test system: human lung adenocarcinoma (A549) transplanted tumor; assay: Zebrafish human lung adenocarcinoma (A549) transplanted tumor model; conditions: A549, 50 μM, 2 days
Description: Human lung adenocarcinoma (A549) cells were labeled with a red fluorescent dye (CM-Dil), and transplanted into zebrafish yolk sacs by microinjection, with about 200 cells being transplanted per zebrafish, so as to establish a zebrafish human lung adenocarcinoma transplanted tumor model.
(§1) Human lung adenocarcinoma (A549) cells were labeled with CM-Dil, and transplanted into 2 dpf wild type AB strain zebrafish yolk sacs by microinjection, with about 200 cells being transplanted per zebrafish, so as to establish a zebrafish human lung adenocarcinoma (A549) transplanted model; and the zebrafishes injected with the A549 cells were fed at 35° C. until 3 dpf.
(§2) Zebrafishes with better consistence in transplanted tumor cells were picked out under a microscope, randomly assigned to a 6-well plate, and were given in a water-dissolving administration manner respectively with the samples at concentrations respectively of 1, 3 and 9 μg/mL and the positive control drug cis-platinum at a concentration of 50 μM; and meanwhile a model control group was set, where there were 30 zebrafishes per well (concentration group), and the volume of each well was 5 mL. […] The inhibitory effect of the sample No. 3 on the zebrafish lung adenocarcinoma (A549) transplanted tumor was evaluated with the fluorescence intensities, and the tumor inhibition effect was calculated using the following equation. […]

[2] = test system: human gastric cancer (SGC-7901) transplanted tumor; assay: Zebrafish human gastric cancer (SGC-7901) transplanted tumor model; conditions: SGC-7901, 50 μM, 2 days
Description: Human gastric cancer (SGC-7901) cells were labeled with a red fluorescent dye (CM-Dil), and transplanted into zebrafish yolk sacs by microinjection, with about 200 cells being transplanted per zebrafish, so as to establish the zebrafish human gastric cancer transplanted tumor model.
as §1, with “gastric cancer (SGC-7901)” for “lung adenocarcinoma (A549)”, “cells” for “cells being transplanted”, “SGC-7901” for “A549”
Zebrafishes with better consistence in transplanted tumor cells were picked out under a microscope, randomly assigned to a 6-well plate, and were given in a water-dissolving administration manner respectively with the samples at concentrations respectively of 28, 83 and 250 μg/mL and the positive control drug cis-platinum at a concentration of 50 μM; and meanwhile a model control group was set, where there were 30 zebrafishes per well, and the volume of each well was 5 mL. […] The inhibitory effects of samples on the zebrafish gastric cancer (SGC-7901) transplanted tumor were respectively evaluated with the fluorescence intensities, and the tumor inhibition effect was calculated using the following equation. […]

[3] = test system: human lymphatic cancer (Ramos) transplanted tumor; assay: Zebrafish human lymphatic cancer (Ramos) transplanted tumor model; conditions: Danio rerio, 48 h, 2 days, read-out: Inhibition Effect
Description: Human lymphatic cancer (Ramos) cells were labeled with a red fluorescent dye (CM-Dil), and transplanted into zebrafish yolk sacs by microinjection, with about 200 cells being transplanted per zebrafish, so as to establish a zebrafish human lymphatic cancer transplanted tumor model.
as §1, with “Human lymphatic cancer (Ramos)” for “Human lung adenocarcinoma (A549)”, “human lymphatic cancer” for “human lung adenocarcinoma (A549)”, “the human lymphatic cancer” for “the A549”
as §2, with “vincristine” for “cis-platinum”, “5” for “50”, “sample” for “sample No. 3”, “lymphatic cancer (Ramos)” for “lung adenocarcinoma (A549)”

| SMILES | Inhibition Effect [1] [%] | Inhibition Effect [2] [%] | inhibition at 5 µM [3] [%] |
| --- | --- | --- | --- |
| N.N.[Cl][Pt][Cl] [cis-platinum, Cis-platinum] | 29 | 37 |  |
| CC[C@]1(O)C[C@H]2CN(CCc3c([nH]c4ccccc34)[C@@](C(=O)OC)(c3cc4c(cc3OC)N(C=O)[C@H]3[C@@](O)(C(=O)OC)[C@H](OC(C)=O)[C@]5(CC)C=CCN6CC[C@]43[C@@H]65)C2)C1 [vincristine, Vincristine sulfate] |  |  | 35 |
